Test system: tNFATC2
Assay: Confocal microscopy of nuclear-localized tNFATC2 in Jurkat T cells
Type: cell-based
Conditions: activated Jurkat T cells
Description: Jurkat T cells were transfected with pCAG-EGFP-tNFATC2-IRES-mCherry-peptide by electroporation. Two days later, these cells were pretreated with […] for 30 min. Afterwards, they were treated with 40 nM PMA and 1 μM ionomycin for 4 hours under culture conditions. Nuclei were stained by treating these cells with 10 μg/ml Hoechst 33342 (Invitrogen, Waltham, MA, USA) before imaging with a confocal laser scanning microscopy (Nikon, Tokyo, Japan). Colocalization analysis of […] and Hoechst was performed with ImageJ and corresponding plug-in JACoP to measure the Manders coefficient (Manders, E. M. et al., J. Cell Sci. 103, 857-862 (1992), Bolte, J. Microsc. 224, 213-232 (2006)).

Row | Molecule | proportion of nuclear-localized tNFATC2
1 | PEITVTPPTP [CABIN1-L-1-2] | slightly higher
2 | C=CC[C@@H]1/C=C(\C)C[C@H](C)C[C@H](OC)[C@H]2O[C@@](O)(C(=O)C(=O)N3CCCC[C@H]3C(=O)O[C@H](/C(C)=C/[C@@H]3CC[C@@H](O)[C@H](OC)C3)[C@H](C)[C@@H](O)CC1=O)[C@H](C)C[C@@H]2OC [FK506, Tacrolimus, reference compound] | lowest

Source: patent US20240376163A1, “PEPTIDE FOR INHIBITING CALCINEURIN AND USE THEREOF” (Seoul National University R&DB Foundation, priority 2023, published 2024)
